Experimental data: PMC8945229, “Development and Biological Characterization of a Novel Selective TrkA Agonist with Neuroprotective Properties against Amyloid Toxicity” (Biomedicines, 2022)

Tests used:
CYP1A2 = molecular target: T1, CYP1A2 (Homo sapiens, UniProt P05177); experiment: Isozyme-specific CYP450 inhibition (Baculosomes); assay type: in vitro ADME; details: 1 μM, 60 min
T1 construct: purchased Thermo Fisher Scientific; host or cells: Baculosomes (microsomes of baculovirus-infected insect cells: own knowledge)
Method: (§1) Baculosomes® expressing CYP1A2, CYP2A6, CYP2B6, CYP2C9, CYP2C19, CYP2D6 and CYP3A4 human CYP450 isoenzymes were purchased from Thermo Fisher Scientific (Waltham, MA, USA). All reagents were handled and prepared according to the manufacturer’s protocol. ENT-A013 was tested at 1 μM. Enzymatic activity in the presence of ΕΝΤ-A013 was assessed based on the kinetic model for CYP1A2, CYP2A6, CYP2B6, CYP2C9, CYP2C19, CYP2D6 and CYP3A4 isoforms. Reactions took place in triplicates at 20 °C. Glucose-6-phosphate at 333 mM and glucose-6-phosphate-dehydrogenase at 30 U/mL in 100 mM potassium phosphate, pH 8.0 (regeneration system) converted NADP^+ (10 mM in 100 mM potassium phosphate, pH 8.0) into NADPH to initiate the CYP450 reaction. Upon the addition of the fluorescent substrate, immediately (<2 min), the fluorescence signal was monitored over time at suitable excitation and emission wavelengths by Lionheart FX (BioTek, Winooski, VT, USA) (Table S2). CYP450 inhibition (%) was determined based on the reaction rates (fluorescence intensity changes per unit time). A total of n = 60 measurements per minute were acquired for a total time of t = 60 min. % Inhibition= (1 − X/A) × 100%(1) where: X is the rate observed in the presence of test-compound; A is the rate observed in the presence of negative (solvent, DMSO) control.

CYP2B6 = molecular target: T2, CYP2B6 (Homo sapiens, UniProt P20813); experiment: Isozyme-specific CYP450 inhibition (Baculosomes); assay type: in vitro ADME; details: 1 μM, 60 min
T2 construct: purchased Thermo Fisher Scientific; host or cells: Baculosomes (microsomes of baculovirus-infected insect cells: own knowledge)
Method: as §1

CYP2C9 = molecular target: T3, CYP2C9 (Homo sapiens, UniProt P11712); experiment: Isozyme-specific CYP450 inhibition (Baculosomes); assay type: in vitro ADME; details: 1 μM, 60 min
T3 construct: purchased Thermo Fisher Scientific; host or cells: Baculosomes (microsomes of baculovirus-infected insect cells: own knowledge)
Method: as §1

CYP2D6 = molecular target: T4, CYP2D6 (Homo sapiens, UniProt P10635); experiment: Isozyme-specific CYP450 inhibition (Baculosomes); assay type: in vitro ADME; details: 1 μM, 60 min
T4 construct: purchased Thermo Fisher Scientific; host or cells: Baculosomes (microsomes of baculovirus-infected insect cells: own knowledge)
Method: as §1

TrkA = molecular target: T5, TrkA (Rattus norvegicus, UniProt P35739); experiment: TrkA phosphorylation in PC12 cells (IP with TrkA antibody, Western blot against phosphorylated Tyrosine); assay type: cell-based
T5 construct: we used PC12 cells, a cell line that express TrkA and p75^NTR; host or cells: PC12
Method: For immunoprecipitation experiments PC12 or HEK293T, cells were used when at 70–80% confluent. […] Cells were then lysed in Pierce™ IP Lysis Buffer (87788, Thermo Fischer Scientific, Waltham, MA, USA) containing proteases (539138, Calbiochem, Darmstadt, Germany) and phosphatase inhibitors (524629, Calbiochem, Darmstadt, Germany). Lysates were then immunoprecipitated overnight at 4 °C with TrkA antibody (1:100, 06-574, Sigma-Aldrich, St. Louis, MO, USA) (Table S1) or p75^NTR antibody (1:100, ab6172, Abcam plc., Cambridge, UK) followed by 4 h incubation with protein G-plus agarose beads (sc-2002, Santa Cruz Biotechnology, Inc., Dallas, TX, USA). Beads were then collected, washed 3X with lysis buffer, resuspended in SDS loading buffer and subjected to Western blot against phosphorylated Tyrosine (1:1000, BAM1676, R&D Systems, Inc., Minneapolis, MN, USA) or Traf6 antibody (1:2000, ab33915, Abcam, plc., Cambridge, UK). Whole cell lysates were subjected to Western blot against TrkA (1:1000, 06-574, Sigma-Aldrich, St. Louis, MO, USA), phosphorylated TrkB (1:1000, ABN1381, Sigma-Aldrich, St. Louis, MO, USA), phosphorylated TrkC (1:1000, STJ90960, St John’s Laboratory, Ltd., London, UK), TrkB (1:1000, 07-225-I, Sigma-Aldrich, St. Louis, MO, USA), TrkC (1:1000, C44H5, Cell Signaling Technology, Danvers, MA, USA), p75 (1:1000, 839701, Biolegend, Inc., San Diego, CA, USA), Traf6 (1:2000, ab33915, Abcam, plc., Cambridge, UK) phosphorylated Akt (1:1000, 9721S, Cell Signaling Technology, Danvers, MA, USA), phosphorylated Erk1/2 (1:1000, 9101S, Cell Signaling Technology, Danvers, MA, USA), total Akt (1:1000, 4691S Cell Signaling Technology, Danvers, MA, USA) and total Erk1/2 (1:1000, 4695S, Cell Signaling Technology, Danvers, MA, USA).

T5 sequence (P35739 33-799): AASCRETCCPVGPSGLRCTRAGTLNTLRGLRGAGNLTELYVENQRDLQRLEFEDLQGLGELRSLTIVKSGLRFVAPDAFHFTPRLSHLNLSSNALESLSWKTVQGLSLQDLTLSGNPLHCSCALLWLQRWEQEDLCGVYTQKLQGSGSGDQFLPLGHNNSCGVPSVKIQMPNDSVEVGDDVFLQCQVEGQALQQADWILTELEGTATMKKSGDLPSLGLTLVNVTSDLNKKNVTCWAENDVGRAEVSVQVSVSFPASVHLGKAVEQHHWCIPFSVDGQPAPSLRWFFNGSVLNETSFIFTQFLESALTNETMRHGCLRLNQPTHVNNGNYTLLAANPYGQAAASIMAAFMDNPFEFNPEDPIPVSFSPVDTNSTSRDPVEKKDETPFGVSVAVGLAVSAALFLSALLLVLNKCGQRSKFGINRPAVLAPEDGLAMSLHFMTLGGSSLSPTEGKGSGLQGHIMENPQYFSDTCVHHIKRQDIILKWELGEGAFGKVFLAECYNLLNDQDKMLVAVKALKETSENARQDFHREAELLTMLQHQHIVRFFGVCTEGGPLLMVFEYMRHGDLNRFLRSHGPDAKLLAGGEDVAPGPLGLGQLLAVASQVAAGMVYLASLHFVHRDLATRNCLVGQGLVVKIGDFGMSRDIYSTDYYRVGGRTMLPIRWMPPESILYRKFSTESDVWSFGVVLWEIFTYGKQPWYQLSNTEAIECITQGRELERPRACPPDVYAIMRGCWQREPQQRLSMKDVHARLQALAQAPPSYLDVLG
T3 sequence (P11712 whole entry): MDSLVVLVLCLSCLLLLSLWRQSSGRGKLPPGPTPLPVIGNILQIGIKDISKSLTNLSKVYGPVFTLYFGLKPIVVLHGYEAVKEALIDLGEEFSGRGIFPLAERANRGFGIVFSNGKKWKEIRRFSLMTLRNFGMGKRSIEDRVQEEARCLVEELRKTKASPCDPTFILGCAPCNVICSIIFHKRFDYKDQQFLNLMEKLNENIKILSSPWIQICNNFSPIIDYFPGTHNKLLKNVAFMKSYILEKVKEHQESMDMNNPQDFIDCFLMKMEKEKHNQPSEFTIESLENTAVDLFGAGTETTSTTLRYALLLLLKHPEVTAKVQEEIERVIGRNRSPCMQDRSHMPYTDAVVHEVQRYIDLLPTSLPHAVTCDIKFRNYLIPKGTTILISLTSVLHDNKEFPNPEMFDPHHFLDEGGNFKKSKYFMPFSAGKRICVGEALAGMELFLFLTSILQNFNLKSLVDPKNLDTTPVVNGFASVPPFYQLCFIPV
T1 sequence (P05177 2-516 limits assumed): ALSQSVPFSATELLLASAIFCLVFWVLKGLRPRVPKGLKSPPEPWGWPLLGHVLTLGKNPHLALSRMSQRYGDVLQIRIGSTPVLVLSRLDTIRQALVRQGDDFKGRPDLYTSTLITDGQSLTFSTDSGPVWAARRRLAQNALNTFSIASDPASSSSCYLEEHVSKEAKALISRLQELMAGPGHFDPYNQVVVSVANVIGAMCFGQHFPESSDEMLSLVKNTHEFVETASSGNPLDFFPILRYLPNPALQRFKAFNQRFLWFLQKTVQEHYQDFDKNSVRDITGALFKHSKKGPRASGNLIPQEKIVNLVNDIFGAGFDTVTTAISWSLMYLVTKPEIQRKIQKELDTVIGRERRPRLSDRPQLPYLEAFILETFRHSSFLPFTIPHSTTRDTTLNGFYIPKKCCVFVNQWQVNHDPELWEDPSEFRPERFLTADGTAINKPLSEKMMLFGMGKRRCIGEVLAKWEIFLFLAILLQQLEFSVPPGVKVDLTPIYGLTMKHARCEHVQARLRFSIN
T4 sequence (P10635 whole entry): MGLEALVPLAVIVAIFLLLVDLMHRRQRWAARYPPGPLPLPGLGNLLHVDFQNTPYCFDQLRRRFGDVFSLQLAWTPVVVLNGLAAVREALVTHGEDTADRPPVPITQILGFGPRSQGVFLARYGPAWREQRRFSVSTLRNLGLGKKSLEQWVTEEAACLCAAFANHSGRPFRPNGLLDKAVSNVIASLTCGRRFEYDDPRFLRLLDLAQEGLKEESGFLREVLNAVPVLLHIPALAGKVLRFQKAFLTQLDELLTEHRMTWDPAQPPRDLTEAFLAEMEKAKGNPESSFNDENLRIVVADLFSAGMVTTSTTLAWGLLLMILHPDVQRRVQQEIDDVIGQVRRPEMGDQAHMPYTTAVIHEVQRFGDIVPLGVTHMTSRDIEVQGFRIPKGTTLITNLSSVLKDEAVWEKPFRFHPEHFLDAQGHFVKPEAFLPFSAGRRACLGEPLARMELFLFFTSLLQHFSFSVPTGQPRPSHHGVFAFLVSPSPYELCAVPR
T2 sequence (P20813 whole entry): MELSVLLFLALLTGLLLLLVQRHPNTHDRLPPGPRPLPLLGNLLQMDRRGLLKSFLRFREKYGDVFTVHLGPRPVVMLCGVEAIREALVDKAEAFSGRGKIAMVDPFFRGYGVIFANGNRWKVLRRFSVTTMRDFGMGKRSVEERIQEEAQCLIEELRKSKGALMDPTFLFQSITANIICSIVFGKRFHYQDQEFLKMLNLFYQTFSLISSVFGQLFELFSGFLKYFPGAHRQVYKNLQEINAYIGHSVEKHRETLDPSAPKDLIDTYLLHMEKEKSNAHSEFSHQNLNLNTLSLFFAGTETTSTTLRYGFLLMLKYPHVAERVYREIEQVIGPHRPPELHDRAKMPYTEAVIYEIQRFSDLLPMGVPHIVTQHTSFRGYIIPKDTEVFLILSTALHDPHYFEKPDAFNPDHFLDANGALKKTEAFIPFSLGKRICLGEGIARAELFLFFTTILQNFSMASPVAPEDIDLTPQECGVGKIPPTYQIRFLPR

Q: With `CC12CCC(O)CC1=CCC1C2CCC2(C)C1CCC21CC1C=CBr` [ENT-A013, (2′R,3S,17S)-2′-(2-Bromovinyl)-5-Androstene-17,1′-Cyclopropan-3-ol] as the compound, how does the “CYP450 inhibition (in words)” value (CYP1A2) read?
A: weak inhibitor

Q: What about the “CYP450 inhibition (in words)” value (CYP2B6) of the same compound?
A: weak inhibitor

Q: What about the “CYP450 inhibition (in words)” value (CYP2C9) of the same compound?
A: weak inhibitor

Q: What about the “CYP450 inhibition (in words)” value (CYP2D6) of the same compound?
A: moderate inhibition

Q: What about the “time TrkA phosphorylation is sustained after treatment” value (TrkA; PC12 cells, 10, 30 or 60′ treatment) of the same compound?
A: up to 1 hr

Q: And the TrkA phosphorylation (TrkA; PC12 cells, compound 500 nM or NGF 100 ng/mL, 30′)?
A: 2.05 ± 0.21 % of control FC
